For twelve compounds, IC50 results are on record in ChEMBL document CHEMBL2311509, “Synthesis and antiproliferative evaluation of 3-phenylquinolinylchalcone derivatives against non-small cell lung cancers and breast cancers” (Eur J Med Chem, 2013).

What all share (type): functional, cell-based
For one assay, the system named is SK-BR-3. The assay can be described thus: Antiproliferative activity against human SKBR3 cells after 72 hrs by XTT assay. As to conditions: SK-BR-3, 72 h. On the technique in general: Tetrazolium assays rely on reduction of a dye to a coloured formazan, in cell work by metabolically active cells.
The subject of the next assay is A549. Nature of the assay: Antiproliferative activity against human A549 cells after 72 hrs by XTT assay. Particulars: A549, 72 h.
The next assay deals with MDA-MB-231. Nature of the assay: Antiproliferative activity against human MDA-MB-231 cells after 72 hrs by XTT assay. Particulars: MDA-MB-231, 72 h.
A short description of assay [1]: Antiproliferative activity against human H1299 cells after 72 hrs by XTT assay. Particulars: NCI-H1299, 72 h.
Assay [2] is described as follows: Antiproliferative activity against human H460 cells after 72 hrs by XTT assay. As to conditions: NCI-H460, 72 h.
A short description of assay [3]: Antiproliferative activity against human H184B5F5/M10 cells after 72 hrs by XTT assay. Particulars: H184B5F5/M10, 72 h.
The subject of another assay is MCF7. The assay can be described thus: Antiproliferative activity against human MCF7 cells after 72 hrs by XTT assay. Particulars: MCF7, 72 h.

Structures are written as SMILES.

As a reminder, the IC50 is the point on the concentration scale where inhibition reaches its midpoint. Low readings indicate greater potency in that assay, high ones weaker potency in that assay.

As for `COc1ccc(-c2cc3ccccc3nc2/C=C/C(=O)c2cccs2)cc1`, the IC50 in the assay on SK-BR-3 was 0.8 µM; in the assay on A549, 0.92 µM; in the assay on MDA-MB-231 it was 0.41 µM; in assay [1], 0.72 µM; in assay [2] it was 5.44 µM; in assay [3], 7.03 µM. In the assay with MCF7, this compound had an IC50 of 1.03 µM.

As for `COc1ccc(-c2cc3ccccc3nc2/C=C/C(=O)c2ccsc2)cc1`, the IC50 stood at 0.66 µM in the assay with SK-BR-3; 8.21 µM in the assay with A549; 1.06 µM in the assay on MDA-MB-231; 1.22 µM in assay [1]; 7.08 µM in assay [2]; 6.39 µM in assay [3]. This compound also displayed an IC50 in the assay on MCF7 of 6.01 µM.

As to `COc1ccc(-c2cc3ccccc3nc2/C=C/C(=O)c2ccc([N+](=O)[O-])cc2)cc1`, the IC50 turned out to be 0.59 µM with SK-BR-3; 6.31 µM with A549; 0.84 µM in the assay on MDA-MB-231; 0.77 µM in assay [1]; 6.47 µM in assay [2]; 6.1 µM in assay [3]. The IC50 in the assay with MCF7 stood at 4.11 µM.

In the case of `COc1ccc(-c2cc3ccccc3nc2/C=C/C(=O)c2c(OC)cccc2OC)cc1`, the 50% inhibitory concentration (IC50) in the assay on SK-BR-3 was 3.83 µM; in the assay with A549 it was 7.41 µM; with MDA-MB-231 it was 5.63 µM; in assay [1] it was 4.71 µM; in assay [2], 6.63 µM; in assay [3] it was 4.47 µM. In the assay on MCF7, this compound had an IC50 of 4.52 µM.

With `COc1ccc(-c2cc3ccccc3nc2/C=C/C(=O)c2ccc(OC)c(OC)c2)cc1`, the IC50 in the assay on SK-BR-3 stood at 3.26 µM; in the assay on A549, 8.86 µM; in the assay on MDA-MB-231 it was 4.79 µM; in assay [1], 1.05 µM; in assay [2] it was 7.54 µM; in assay [3] it was 7.24 µM. In the assay with MCF7, the IC50 is 6.03 µM.

Consider `COc1ccc(-c2cc3ccccc3nc2/C=C/C(=O)c2cc(OC)cc(OC)c2)cc1`, for which the IC50 in the assay on SK-BR-3 worked out at 0.47 µM; in the assay on A549, 9.52 µM; in the assay with MDA-MB-231 it was 0.92 µM; in assay [1] it was 0.93 µM; in assay [2], 7.52 µM; in assay [3] it was 6.66 µM. The IC50 with MCF7 came out at 3.23 µM.

As to `COc1ccc(-c2cc3ccccc3nc2/C=C/C(=O)c2ccco2)cc1`, the IC50 with SK-BR-3 was found to be 0.64 µM; in the assay with A549, 6.13 µM; in the assay with MDA-MB-231 it was 0.63 µM; in assay [1], 0.73 µM; in assay [2], 6.43 µM; in assay [3], 6.24 µM. The same compound displayed an IC50 in the assay with MCF7 of 0.71 µM.

Turning to `COc1ccc(-c2cc3ccccc3nc2/C=C/C(=O)c2cnc(N)nc2C)cc1`, the half-inhibitory concentration (IC50) (in the assay on SK-BR-3; in the assay with A549; in the assay on MDA-MB-231; in assay [1]; in assay [2]; in assay [3]) was over 10 µM in each case. The same compound displayed an IC50 with MCF7 of over 10 µM.

Regarding `COc1ccc(-c2cc3ccccc3nc2C=O)cc1`, the IC50 (with SK-BR-3; in the assay on A549; with MDA-MB-231; in assay [1]; in assay [2]; in assay [3]) was over 10 µM each time. The compound also came in with an IC50 in the assay with MCF7 of over 10 µM.

In the case of `COc1ccc(-c2cc3ccccc3nc2/C=C/C(=O)c2ccc(F)cc2)cc1`, the IC50 with SK-BR-3 was 0.81 µM; in the assay on A549 it was 8.32 µM; in the assay with MDA-MB-231 it was 0.83 µM; in assay [1] it was 0.82 µM; in assay [2], 6.99 µM; in assay [3], over 10 µM. In the assay with MCF7, this compound displayed an IC50 of 5.45 µM.

For the compound `COc1ccc(-c2cc3ccccc3nc2/C=C/C(=O)c2ccc(OC)cc2OC)cc1`, the IC50 in the assay on SK-BR-3 came to 2.26 µM; in the assay with A549, 7.99 µM; in the assay on MDA-MB-231 it was 3.21 µM; in assay [1] it was 3.77 µM; in assay [2] it was 7.04 µM; in assay [3], 6.11 µM. In the assay on MCF7, half-maximal inhibition (IC50) was put at 6.26 µM.

Consider `CC[C@@]1(O)C(=O)OCc2c1cc1n(c2=O)Cc2cc3c(CN(C)C)c(O)ccc3nc2-1` [TOPOTECAN], for which the concentration for half-maximal inhibition (IC50) in the assay on SK-BR-3 is 8.91 µM; with MDA-MB-231 it was under 0.1 µM; in assay [1] it was 6.02 µM; in assay [2], 7.29 µM; in assay [3], over 10 µM; in the assay on MCF7 it was 5.97 µM.
